Assays:
Format in all cases: in vitro ADME
[1] = Hepatocyte stability (human); conditions: 0.5×10^6 viable cells/mL
Protocol: (§1) 10 mM and 100 μM stock solutions of test compound(s) and a positive control were prepared in appropriate solvent (DMSO). In separate conical tubes, the 10 mM test compound and the positive control were diluted to 100 μM by combining 198 μL of 50% acetonitrile/50% water and 2 μL of 10 mM stock. The 100 μM test compound and the positive control were diluted to 30 μM by combining 140 μL of 50% acetonitrile/50% water and 60 μL of 100 μM stock solution. The 100 μM test compound and the positive control were diluted to 10 μM by combining 180 μL of 50% acetonitrile/50% water and 20 μL of 100 μM stock solution. The 100 μM test compound and the positive control were diluted to 3 μM by combining 194 μL of 50% acetonitrile/50% water and 6 μL of 100 μM stock solution.
(§2) Incubation medium (William's E Medium supplemented with GlutaMAX) and hepatocyte thawing medium was placed in a 37° C. water bath, and allowed to warm for at least 15 minutes prior to use. A vial of cryopreserved hepatocytes from storage was then removed, ensuring that the vial remains at cryogenic temperatures until thawing process ensues. Cells were thawed by placing the vial in a 37° C. water bath and gently shaking the vial for 2 minutes. After thawing was completed, the vial was sprayed with 70% ethanol and transferred to a biosafety cabinet.
(§3) A wide-bore pipette tip was used to transfer hepatocytes into 50 mL conical tube containing thawing medium. The 50 mL conical tube was placed into a centrifuge and spun at 100 g for 10 minutes. Upon completion of spin, the thawing medium was aspirated and the hepatocytes were resuspended in enough incubation medium to yield ˜1.5×10^6 cells/mL.
(§4) Using AOPI staining solution, cells were counted and the viable cell density was determined. Cells with poor viability (<75% viability) are not acceptable for use. […]
(§5) All calculations were carried out using Microsoft Excel. Peak areas were determined from extracted ion chromatograms. […]
(§6) The in vitro half-life (in vitro t1/2) was determined from the slope value: in vitro t1/2=0.693/k

[2] = Plasma protein binding, equilibrium dialysis (rat); conditions: pH 7.4, equilibrium dialysis 6 hours, read-out: PPB (rat), percent of unbound fraction
Protocol: Preparation of 100 mM sodium phosphate and 150 mM NaCl buffer (PBS). A basic solution was prepared by dissolving 14.2 g/L Na2HPO4 and 8.77 g/L NaCl in deionized water and the solution could be stored at 4° C. for up to 7 days. An acidic solution was prepared by dissolving 12.0 g/L NaH2PO4 and 8.77 g/L NaCl in deionized water and the solution could be stored at 4° C. for up to 7 days. The basic solution was titrated with the acidic solution to pH 7.4 and store at 4° C. for up to 7 days. pH was checked on the day of experiment and was adjusted if outside specification of 7.4±0.1.
Thawing of the frozen plasma (stored at −80° C.). Frozen plasma was thawed immediately at room temperature. The plasma was centrifuged at 3,220 g for 10 minutes to remove clots and supernatant was collected into a fresh tube. The pH of the plasma was checked and recorded. Note: a). Only use plasma that has been thawed no more than twice since arrival. b). Only use plasma within the range of pH 7 to pH 8.
Preparation of working solutions. The working solutions of test compound and control compound ketoconazole were prepared in DMSO at the concentration of 200 μM. And then 3 μL of working solutions was removed to mix with 597 μL of rat plasma to achieve a final concentration of 1 μM (0.5% DMSO). Plasma samples were vortexed thoroughly.
Preparation of dialysis membranes. The dialysis membranes were soaked in ultrapure water for 60 minutes to separate strips, then in 20% ethanol for 20 minutes, finally in dialysis buffer for 20 minutes.
Procedure for equilibrium dialysis. The dialysis apparatus was assembled according to the manufacturer's instruction. Each Cell was filled with 120 μL of spiked plasma sample and dialyzed against equal volume of dialysis buffer (PBS). The assay was performed in duplicate. The dialysis plate was sealed and incubated in an incubator at 37° C. with 5% CO2 at 100 rpm for 6 hours. At the end of incubation, seal was removed and 50 μL of samples from both buffer and plasma chambers were transferred to wells of a 96-well plate.
Procedure for sample preparation. […]

[3] = Hepatocyte stability (rat); conditions: 0.5×10^6 viable cells/mL
Protocol: as §1, §2, §3, §4, §5, §6

SMILES | Hepatocyte stability, Human [1] | fraction unbound at 6 h, 1 μM [2] | Hepatocyte stability, Rat [3]
CC(C)(C)NC[C@H](O)c1cccc(C#N)n1 [Compound 03-5, (S)-6-(2-(tert-butylamino)-1-hydroxyethyl)picolinonitrile] | 0.36-0.59 μL/min/10^6 cells | 1 | 3.54-4.62 μL/min/10^6 cells
CC(C)(C)NC[C@H](O)c1cccc(C(F)(F)F)n1 [Compound 03-3] | 0.9 μL/min/10^6 cells | 0.9 | 4.59 μL/min/10^6 cells
Cc1ncccc1[C@@H](O)CNC(C)(C)C [Compound 03-115] | 0.32 μL/min/10^6 cells | 0.97 | 20.61 μL/min/10^6 cells
